Reference: US20220395003A1, “Methods for Use in Food Processing and Preservation” (priority 2019, published 2022)

Assays:
[1] = tested on: microbial growth on the surface of beef carcass; experiment: Microbiological analysis of low and high surface areas of beef carcass (Example 2)
Protocol: A 0.3% aqueous solution of chitosan formed as described above having 0.01% sodium sulfite and 0.1% acetic acid was poured into a commercial dry vapor steam cleaning unit and allowed to equilibrate for about 15 minutes. The steam was applied to a beef carcass by the method of […] as disclosed in U.S. Pat. No. 9,149,036 which is incorporated herein by reference in its entirety. For comparison, a beef carcass was sprayed with an aqueous solution of about 3% acetic acid by standard methods known in the art. Prior to applying the chitosan steam or the aqueous acetic acid solution, the beef carcasses were washed thoroughly with hot water. The beef carcasses were maintained at 4 degrees centigrade. Microbiological analysis was performed on the surface of the carcasses at pretreatment and at 1, 24, and 72 hours after treatment. […] The study in Example 1 was repeated, applying the previously-described 0.3% chitosan, acetic acid, and sodium sulfite solution on a low surface area and a high surface area of a beef carcass.

[2] = tested on: microbial growth on the surface of beef carcasses; experiment: Microbiological analysis of beef carcass surface after treatment (Example 1)
Protocol: A 0.3% aqueous solution of chitosan formed as described above having 0.01% sodium sulfite and 0.1% acetic acid was poured into a commercial dry vapor steam cleaning unit and allowed to equilibrate for about 15 minutes. The steam was applied to a beef carcass by the method of […] as disclosed in U.S. Pat. No. 9,149,036 which is incorporated herein by reference in its entirety. For comparison, a beef carcass was sprayed with an aqueous solution of about 3% acetic acid by standard methods known in the art. Prior to applying the chitosan steam or the aqueous acetic acid solution, the beef carcasses were washed thoroughly with hot water. The beef carcasses were maintained at 4 degrees centigrade.

Work on `CC(=O)O` [Water wash + acetic acid, acetic acid] yielded a microbial growth ([1]; High (A) surface, 1 h) of 1.59 log colony forming units, a microbial growth ([1]; High (A) surface, 48 h) of 1.35 log colony forming units and a microbial growth ([1]; High (A) surface, 168 h) of 1.49 log colony forming units. It also gave a microbial growth ([1]; High (B) surface, 1 h) of 2.03 log colony forming units, a microbial growth ([1]; High (B) surface, 48 h) of 1.80 log colony forming units and a microbial growth ([1]; High (B) surface, 168 h) of 1.77 log colony forming units. It also gave a microbial growth ([1]; High (C) surface, 1 h) of 1.88 log colony forming units, a microbial growth ([1]; High (C) surface, 48 h) of 1.65 log colony forming units and a microbial growth ([1]; High (C) surface, 168 h) of 1.43 log colony forming units. It also gave a microbial growth ([1]; Low (A) surface, 1 h) of 1.53 log colony forming units, a microbial growth ([1]; Low (A) surface, 48 h) of 1.09 log colony forming units and a microbial growth ([1]; Low (A) surface, 168 h) of 0.00 log colony forming units. The microbial growth ([1]; Low (B) surface, 1 h) was 1.73 log colony forming units, the microbial growth ([1]; Low (B) surface, 48 h) was 1.57 log colony forming units and the microbial growth ([1]; Low (B) surface, 168 h) was 1.45 log colony forming units. It also gave a microbial growth ([1]; Low (C) surface, 1 h) of 0.43 log colony forming units, a microbial growth ([1]; Low (C) surface, 48 h) of 0.94 log colony forming units and a microbial growth ([1]; Low (C) surface, 168 h) of 1.35 log colony forming units. It also gave a microbial growth ([2]; Flank, 0 h (pretreatment), 4 degrees centigrade) of 2.60 log colony forming units, a microbial growth ([2]; Flank, 1 h after treatment) of 2.10 log colony forming units and a microbial growth ([2]; Flank, 24 h after treatment) of 2.10 log colony forming units. For the same compound, the microbial growth ([2]; Flank, 72 h after treatment) was 2.00 log colony forming units, the microbial growth ([2]; Loin, 0 h (pretreatment), 4 degrees centigrade) was 3.70 log colony forming units and the microbial growth ([2]; Loin, 1 h after treatment) was 2.40 log colony forming units. It also gave a microbial growth ([2]; Loin, 24 h after treatment) of 1.80 log colony forming units and a microbial growth ([2]; Loin, 72 h after treatment) of 2.00 log colony forming units.
